Experimental data as given in PMC5340577 (Nuclear medicine and biology, 2016).

Key:
[1] = humans; cited from earlier work
[2] = Stability of Re complex in aqueous solution by ^1H NMR; assay type: physicochemical; details: D2O, pH 7

Compound	clearance as percent of that of ^131I-OIH [1]	stability in aqueous solution (^1H NMR signals) [2]
O=C([O-])CN=C([O-])CN=C([O-])CN=C([O-])C[S-].[O-2].[Tc+4] [^99mTc-MAG3, ^99mTc-mercaptoacetyltriglycine]	~ 60%	
Na[Re(CO)3(FEDA)] [Re-4]		no change for weeks
